In US20200377545A1, “NOVEL ANTI-TUMOR COMPOUND AND APPLICATION THEREOF IN PREPARING ANTI-TUMOR DRUGS” (HANGZHOU XINGAO BIOTECHNOLOGY CO., LTD, priority 2018, published 2020):

Legend:
Assay type in all cases: in vivo
[1] = system: mouse Lewis lung cancer cell line LL/2; assay: Subcutaneous transplanted tumor of mouse Lewis lung cancer cell line LL-2 in mice; conditions: C57 mouse, LL-2 tumor, once every two days for 20 days, cGAMP 5 mg/kg subcutaneous, oxaliplatin 2 mg/kg oral, platinum complexes 6 mg/kg oral; for Mean tumor weight (g): n = 10, mean ± SD; for Mean tumor inhibition rate (%): vs negative control group
Description: (§1) Mice are orally administrated, and [cis-Pt(NH3)2(cGAMP)] and the tetravalent platinum complex cis-[Pt(cGAMP)(NH3)2(Cl)(OH)] are both set to be 6 mg/kg in one dose group.
(§2) Positive control: cGAMP, 5 mg/kg in dose (subcutaneous) oxaliplatin, 2 mg/kg in dose (oral)
(§3) Administration routes: control group: cGAMP, 5 mg/kg in dose (subcutaneous)
(§4) Oxaliplatin, 2 mg/kg in dose (oral);
(§5) Immune activator platinum complex, 6 mg/kg in dose (oral)
(§6) Administration volume: 100 μl/animal; number of times of administration: continuous administration for 20 days, once every two days.
(§7) Mouse colorectal cancer cell line CT26, mouse Lewis lung cancer cell line LL/2, human ovarian cancer cell line SK-OV-3, and human melanoma cell line A375, which all purchased from the Cell Bank of the Chinese Academy of Sciences.
(§8) The 5 groups are administered once every two days for 20 consecutive days. 20 days later, the mice are killed and the tumors are weighed. Tumor inhibition rate=[1−mean tumor weight of experimental group/mean tumor weight of group A)]×100%.
(§9) Data is expressed with x±s, and processed with SPSS10.0 software. The significance of the difference between tumor weights of all groups is compared by a one-way ANOVA test. The significance level a=0.05.

[2] = system: human ovarian cancer cell line SK-OV-3; assay: Mouse subcutaneous transplanted tumor of human ovarian cancer cell line SK-OV-3; conditions: SK-OV-3 tumor, once every two days for 20 days, cGAMP 5 mg/kg subcutaneous, oxaliplatin 2 mg/kg oral, platinum complexes 6 mg/kg oral; for Mean tumor weight (g): n = 10, mean ± SD; for Mean tumor inhibition rate (%): vs negative control group
Description: (§10) BALB/c ordinary mice, male, 18-20 g in weight, 6-8 weeks old, SPF grade, purchased from Shanghai SLAC Laboratory Animal Co., Ltd.[Laboratory Animal Quality Certificate Number: SCXK (Shanghai) 2007-0005].
as §1, §2, §3, §4, §5, §6, §7, §8, §9

[3] = system: mouse colorectal cancer cell line CT26; assay: Subcutaneous transplanted tumor of mouse colorectal cancer cell CT26 in mice; conditions: for Mean tumor weight (g) / Mean tumor inhibition rate (%): BalB/C mouse, CT26 tumor, once every two days for 20 days, cGAMP 5 mg/kg subcutaneous, oxaliplatin 2 mg/kg oral, platinum complexes 6 mg/kg oral; for Mean tumor weight (g): n = 10, mean ± SD; for Mean tumor inhibition rate (%): vs negative control group; for Inhibition of the growth of subcutaneous transplanted tumors (result in words): summary statement for all four tumor models (Tables 1-4), 20 days after administration, tumor weights significantly lower than negative control (P<0.05, P<0.01)
Description: as §10, §1, §2, §3, §4, §5, §6, §7, §8, §9

[4] = system: human melanoma cell line A375; assay: Mouse subcutaneous transplanted tumor of human melanoma cell line A375; conditions: once every two days for 20 days, cGAMP 5 mg/kg subcutaneous, oxaliplatin 2 mg/kg oral, platinum complexes 6 mg/kg oral; for Mean tumor weight (g): n = 10, mean ± SD; for Mean tumor inhibition rate (%): vs negative control group
Description: as §10, §1, §2, §3, §4, §5, §6, §7, §8, §9

Compound	Mean tumor weight (g) [1]	Mean tumor inhibition rate (%) [1] [%]	Mean tumor weight (g) [2]	Mean tumor inhibition rate (%) [2] [%]	Mean tumor weight (g) [3]	Mean tumor inhibition rate (%) [3] [%]	Inhibition of the growth of subcutaneous transplanted tumors (result in words) [3]	Mean tumor weight (g) [4]	Mean tumor inhibition rate (%) [4] [%]
O=C1[O][Pt]2([NH][C@@H]3CCCC[C@H]3[NH]2)[O]C1=O [Oxaliplatin, oxaliplatin]	0.963 ± 0.223 (g)	62.4	0.989 ± 0.215 (g)	62.6	0.963 ± 0.223 (g)	57.3	obviously inhibit the growth of tumors	0.989 ± 0.215 (g)	62.4
Nc1nc2c(ncn2[C@@H]2O[C@@H]3COP(=O)(O)O[C@H]4[C@@H](O)[C@H](n5cnc6c(N)ncnc65)O[C@@H]4COP(=O)(O)O[C@@H]2[C@@H]3O)c(=O)[nH]1 [cGAMP, Cyclic [G(2′,5′)pA(3′,5′)p]]	0.980 ± 0.214 (g)	56.6	0.997 ± 0.212 (g)	62.3	0.840 ± 0.218 (g)	62.8	obviously inhibit the growth of tumors	0.969 ± 0.216 (g)	63.0
cis-[Pt(cGAMP)(NH3)2(Cl)(OH)] [cGAMP-tetravalent cisplatin]	0.784 ± 0.232 (g)	69.4	0.813 ± 0.226 (g)	69.3	0.689 ± 0.224 (g)	69.5	obviously inhibit the growth of tumors	0.794 ± 0.224 (g)	69.8
cis-[Pt(cGAMP)(NH3)2] [cGAMP-cisplatin]	0.758 ± 0.226 (g)	70.4	0.789 ± 0.218 (g)	70.2	0.648 ± 0.216 (g)	71.3	obviously inhibit the growth of tumors	0.786 ± 0.218 (g)	70.1
